Assay results reported in patent publication US11019823B2, “Method of controlling water surface inhabiting pests” (SHA'KED MICROBIAL SOLUTIONS LTD., priority 2013, dated 2021).

What was measured:
[1] = tested on: Culex quinquefasciatus eggs; assay: Mosquito egg bioassay in spot plates, probit analysis; format: in vivo
Experimental: Mosquito eggs were obtained from the Center for Disease control in Fort Collins, Colo. The eggs were counted and transferred to spot plates containing 8 ml of NaDCC anhydrous solution at 0, 50, 500, 5000, and 50,000 ppm. Each treatment concentration and control (0 ppm) was replicated 3 times within the same spot plate and transferred to an incubator set for 30° C. and 12 hrs of light and dark alterations for 25 hours. […] Larvae were counted as living, hatched dead, or unhatched dead 25 hrs after the bioassay was initiated. Larvae were only counted as hatched if they were completely free from their egg casing. Data were analyzed by probit analysis with the PROBIT Procedure in SAS (Version 9.2, Cary N.C.), producing an LC95 and natural response rate.

Anopheles stevensi eggs = settings: 72 hrs, 30° C., probit analysis
Experimental: Data were analyzed by probit analysis with the PROBIT Procedure in SAS (Version 9.2, Cary N.C.).

A. aegypti eggs = assay: Mosquito egg bioassay in spot plates, probit analysis; format: in vivo, Aedes aegypti
Experimental: A. aegypti eggs were obtained from the Center for Disease control in Fort Collins, Colo. The eggs were counted and transferred to spot plate treatment or control wells, and placed in an incubator. Larvae were counted as living, hatched dead, or unhatched dead 72 hours after the bioassay was initiated. […] The LC95 for A. aegypti was 470 ppm.

[2] = tested on: Non-biting midge eggs (Chironomidae: Tanypodinae); settings: a week, 30° C., probit analysis
Experimental: Non-biting midge eggs (Chironomidae: Tanypodinae) were obtained from the pond at Town Park, Auburn, Ala. The eggs were counted and transferred to spot plates containing 8 ml of NaDCC anhydrous solution at 0, 50, 500, 5000, and 50,000 ppm. Each treatment and control was replicated 3 times within the same spot plate and transferred to an incubator set for 30° C. and 12 hours of light and dark alterations for a week. Data were analyzed by probit analysis with the PROBIT Procedure in SAS (Version 9.2, Cary N.C.). Larvae were only counted as hatched if they were completely free from their egg casing.

[3] = Dissolution study: release of free available chlorine / NaDCC from floating pellets in deionized water (orthotolidine colorimetry, 436 nm); format: physicochemical
Experimental: The ability of the pellet to release free available chlorine from the water soluble NaDCC was measured over time using a colorimeric method. Three pellets were selected at random from the kilogram batch that was created. The dimensions and mass of each pellet was recorded and the pellets were added to an 800 ml high density polyethylene (HDPE) beaker filled with deionized water and covered with aluminum foil. NaDCC (0.1975 g) was added to a separate 800 ml plastic beaker as a control. 0.8 ml aliquots of each solution were pipetted into 50 ml volumetic flasks and brought to volume with deionized water. 10 ml aliquots of these diluted solutions were mixed with 100 μl of 0.1% orthotolidine in a vial, forming a clear, yellow solution. The solution was loaded into a cuvette and was analyzed using a Shimadzu UV160U UV-Vis Spectrophotometer at 436 nm.
Initial sample pulls occurred 15 minutes after the pellets and control sample were added to the water. Additional pulls were taken at about 2, 9, 11, 13, 15, 17, 24, and 36 hours.
Upon exposure to water, NaDCC breaks down to release free available chlorine that acts as an algae growth inhibitor. Orthotolidine reacts with the chlorine causing a color change allowing for colorimetic analysis to chart the dissolution of the NaDCC. The concentration of NaDCC released at each time point was calculated by constructing a calibration curve relating the free available chlorine response to the initial concentration of NaDCC. The initial concentration of NaDCC calculation is shown in Equation 1. The original aliquot of the control taken at the 15 minute mark was used to create standards ranging from 25-250 ppm. Concentration of initial NaDCC=initial mass of NaDCC/volume of deionized water Equation 1: 197.5 mg/0.800 L=246.9 ppm

[4] = tested on: toxic cyanobacterium Oscillatoria sp.; settings: 1.6 g NaDCC per enclosure of about 270 liter (Example 5)
[5] = tested on: cyanobacterium Oscillatoria sp.; settings: 1.2 g NaDCC per enclosure (Example 6)
[6] = tested on: non-motile eggs of the insects; assay: Concentrated hypochlorite on insect egg hatching; format: in vivo; settings: 250-500 ppm of concentrated hypochlorite
Description: In certain aspects the methods of the present invention target the non-motile eggs of the insects. 250-500 ppm of concentrated hypochlorite caused 95% of egg populations not to hatch.

O=c1nc([O-])n(Cl)c(=O)n1Cl.[Na+] [NaDCC anhydrous, Sodium Dichloroisocyanurate (NaDCC) Anhydrous]
state of egg shells ([1]; 5000 ppm treatment): mostly dissolved | state of egg shells ([1]; 50,000 ppm treatment): dissolved and unperceivable | LC95 ([1]; 25 hrs, 30° C., probit analysis): 93.8 ppm | LC95 (Anopheles stevensi eggs): 270 ppm | state of egg shells (A. aegypti eggs; 5000 ppm treatment): mostly dissolved | state of egg shells (A. aegypti eggs; 50,000 ppm treatment): dissolved and unperceivable | LC95 (A. aegypti eggs; 72 hours, probit analysis): 470 ppm | LC95 [2]: 205.7 ppm

O=c1nc([O-])n(Cl)c(=O)n1Cl.[Na+] [NaDCC, sodium dichloroisocyanurate]
Concentration of NaDCC released ([3]; 0.25 hours): 241.5 ppm | Response ([3]; 0.25 hours, 436 nm, orthotolidine, 800 ml deionized water): 2.053 AU | Concentration of NaDCC released ([3]; 2.17 hours): 228.4 ppm | Response ([3]; 2.17 hours): 1.941 AU | Concentration of NaDCC released ([3]; 9.17 hours): 237.9 ppm | Response ([3]; 9.17 hours): 2.022 AU | Concentration of NaDCC released ([3]; 11.00 hours): 215.4 ppm | Response ([3]; 11.00 hours): 1.831 AU | Concentration of NaDCC released ([3]; 13.42 hours): 238.8 ppm | Response ([3]; 13.42 hours): 2.030 AU | Concentration of NaDCC released ([3]; 15.42 hours): 233.9 ppm | Response ([3]; 15.42 hours): 1.988 AU | Concentration of NaDCC released ([3]; 17.67 hours): 231.5 ppm | Response ([3]; 17.67 hours): 1.968 AU | Concentration of NaDCC released ([3]; 24.00 hours): 217.6 ppm | Response ([3]; 24.00 hours): 1.850 AU | Concentration of NaDCC released ([3]; 36.00 hours): 237.1 ppm | Response ([3]; 36.00 hours): 2.015 AU | effect on cyanobacterial infestation [4]: total elimination of the cyanobacterial infestation | effect on cyanobacterial infestation [5]: total elimination of the cyanobacterial infestation

OCl [hypochlorite]
egg populations not hatching [6]: 95%
